Measurements published in the NIST ThermoML archive (doi:10.1016/j.fluid.2015.03.025).
Numbers after ± are expanded uncertainties.

Assay: xn = mol fraction of the nth substance listed
Conditions: 101 kPa, Liquid; for mass density: Buoyancy - hydrostatic balance; for electrical conductivity: Alternating current cell with electrodes; for viscosity: Capillary tube (Ostwald / Ubbelohde) method

**Q.** What does the source list for C[N+](C)(C)CCO.[Cl-] [choline chloride] + OCCO?
**A.** mass density (301.55 K, x1 = 0.5): 1048.21 ± 0.72 kg/m3; electrical conductivity (303.04 K, x1 = 0.5): 0.838 ± 0.008 S/m; mass density (307.95 K, x1 = 0.5): 1046.1 ± 0.71 kg/m3; electrical conductivity (308.15 K, x1 = 0.5): 0.917 ± 0.008 S/m; electrical conductivity (312.74 K, x1 = 0.5): 0.986 ± 0.008 S/m; mass density (313.15 K, x1 = 0.5): 1044.28 ± 0.71 kg/m3; viscosity (313.15 K, x1 = 0.5): 25.3 ± 0.3 mPa·s; electrical conductivity (317.51 K, x1 = 0.5): 1.054 ± 0.008 S/m; mass density (317.55 K, x1 = 0.5): 1042.81 ± 0.71 kg/m3; viscosity (318.15 K, x1 = 0.5): 21.7 ± 0.2 mPa·s; mass density (322.85 K, x1 = 0.5): 1041.05 ± 0.71 kg/m3; electrical conductivity (323.15 K, x1 = 0.5): 1.123 ± 0.008 S/m; viscosity (323.15 K, x1 = 0.5): 18.3 ± 0.2 mPa·s; mass density (327.35 K, x1 = 0.5): 1039.36 ± 0.7 kg/m3; electrical conductivity (328.15 K, x1 = 0.5): 1.186 ± 0.008 S/m; viscosity (328.15 K, x1 = 0.5): 16.3 ± 0.2 mPa·s; electrical conductivity (333.15 K, x1 = 0.5): 1.264 ± 0.008 S/m; viscosity (333.15 K, x1 = 0.5): 14.4 ± 0.2 mPa·s; mass density (333.25 K, x1 = 0.5): 1036.72 ± 0.7 kg/m3; mass density (338.15 K, x1 = 0.5): 1034.68 ± 0.7 kg/m3; viscosity (338.15 K, x1 = 0.5): 12.4 ± 0.1 mPa·s; electrical conductivity (343.15 K, x1 = 0.5): 1.414 ± 0.008 S/m; viscosity (343.15 K, x1 = 0.5): 10.5 ± 0.1 mPa·s; mass density (347.85 K, x1 = 0.5): 1030.78 ± 0.69 kg/m3; viscosity (348.15 K, x1 = 0.5): 9.6 ± 0.1 mPa·s; electrical conductivity (353.15 K, x1 = 0.5): 1.519 ± 0.008 S/m; mass density (353.15 K, x1 = 0.5): 1028.98 ± 0.69 kg/m3; viscosity (353.15 K, x1 = 0.5): 8.7 ± 0.1 mPa·s

**Q.** What does the source list for O=C(O)C(=O)O [ethanedioic acid] + C[N+](C)(C)CCO.[Cl-]?
**A.** mass density (300.15 K, x2 = 0.5): 1160.6 ± 0.93 kg/m3; electrical conductivity (303.05 K, x2 = 0.5): 0.483 ± 0.008 S/m; viscosity (303.15 K, x2 = 0.5): 119.4 ± 2.1 mPa·s; mass density (304.15 K, x2 = 0.5): 1158.66 ± 0.93 kg/m3; electrical conductivity (308.15 K, x2 = 0.5): 0.56 ± 0.008 S/m; viscosity (308.15 K, x2 = 0.5): 101.1 ± 1.6 mPa·s; electrical conductivity (312.75 K, x2 = 0.5): 0.638 ± 0.008 S/m; mass density (312.75 K, x2 = 0.5): 1153.06 ± 0.92 kg/m3; viscosity (313.15 K, x2 = 0.5): 82.7 ± 1.2 mPa·s; electrical conductivity (317.55 K, x2 = 0.5): 0.727 ± 0.008 S/m; mass density (318.15 K, x2 = 0.5): 1150.57 ± 0.91 kg/m3; viscosity (318.15 K, x2 = 0.5): 60.2 ± 0.8 mPa·s; electrical conductivity (323.15 K, x2 = 0.5): 0.808 ± 0.008 S/m; mass density (323.15 K, x2 = 0.5): 1148.23 ± 0.91 kg/m3; viscosity (323.15 K, x2 = 0.5): 43.7 ± 0.7 mPa·s; electrical conductivity (328.15 K, x2 = 0.5): 0.886 ± 0.008 S/m; viscosity (328.15 K, x2 = 0.5): 37 ± 0.7 mPa·s; mass density (328.65 K, x2 = 0.5): 1146.23 ± 0.91 kg/m3; electrical conductivity (333.15 K, x2 = 0.5): 0.981 ± 0.008 S/m; viscosity (333.15 K, x2 = 0.5): 31.9 ± 0.7 mPa·s; mass density (334.15 K, x2 = 0.5): 1142.66 ± 0.9 kg/m3; electrical conductivity (343.15 K, x2 = 0.5): 1.144 ± 0.008 S/m; mass density (343.15 K, x2 = 0.5): 1137.16 ± 0.89 kg/m3; viscosity (343.15 K, x2 = 0.5): 20.1 ± 0.6 mPa·s; viscosity (348.15 K, x2 = 0.5): 16.8 ± 0.6 mPa·s; mass density (348.65 K, x2 = 0.5): 1135.11 ± 0.89 kg/m3; electrical conductivity (353.15 K, x2 = 0.5): 1.288 ± 0.008 S/m; mass density (353.15 K, x2 = 0.5): 1133.19 ± 0.89 kg/m3; viscosity (353.15 K, x2 = 0.5): 14.3 ± 0.6 mPa·s

**Q.** What does the source list for OCCN(CCO)CCO [triethanolamine] + C[N+](C)(C)CCO.[Cl-]?
**A.** electrical conductivity (312.75 K, x2 = 0.5): 0.013 ± 0.008 S/m; mass density (313.15 K, x2 = 0.5): 1044.2 ± 0.34 kg/m3; viscosity (313.15 K, x2 = 0.5): 83 ± 1 mPa·s; electrical conductivity (317.55 K, x2 = 0.5): 0.008 ± 0.008 S/m; viscosity (318.15 K, x2 = 0.5): 64.8 ± 0.8 mPa·s; mass density (318.25 K, x2 = 0.5): 1042.56 ± 0.34 kg/m3; electrical conductivity (323.15 K, x2 = 0.5): 0.008 ± 0.008 S/m; viscosity (323.15 K, x2 = 0.5): 44.9 ± 0.7 mPa·s; mass density (323.25 K, x2 = 0.5): 1040.96 ± 0.34 kg/m3; electrical conductivity (328.15 K, x2 = 0.5): 0.013 ± 0.008 S/m; viscosity (328.15 K, x2 = 0.5): 39.9 ± 0.7 mPa·s; mass density (328.35 K, x2 = 0.5): 1039.12 ± 0.34 kg/m3; electrical conductivity (333.15 K, x2 = 0.5): 0.007 ± 0.008 S/m; viscosity (333.15 K, x2 = 0.5): 33 ± 0.6 mPa·s; mass density (333.25 K, x2 = 0.5): 1037.41 ± 0.34 kg/m3; electrical conductivity (338.15 K, x2 = 0.5): 0.017 ± 0.008 S/m; viscosity (338.15 K, x2 = 0.5): 27.2 ± 0.6 mPa·s; mass density (338.45 K, x2 = 0.5): 1035.68 ± 0.34 kg/m3; electrical conductivity (343.15 K, x2 = 0.5): 0.018 ± 0.008 S/m; viscosity (343.15 K, x2 = 0.5): 21.3 ± 0.6 mPa·s; mass density (343.25 K, x2 = 0.5): 1034.09 ± 0.34 kg/m3; electrical conductivity (348.15 K, x2 = 0.5): 0.006 ± 0.008 S/m; viscosity (348.15 K, x2 = 0.5): 18.8 ± 0.6 mPa·s; mass density (348.55 K, x2 = 0.5): 1032.59 ± 0.33 kg/m3; mass density (350.45 K, x2 = 0.5): 1032.09 ± 0.33 kg/m3; electrical conductivity (353.15 K, x2 = 0.5): 0.008 ± 0.008 S/m; mass density (353.15 K, x2 = 0.5): 1031.28 ± 0.33 kg/m3
